Laboratory results taken from article PMC12865225 (Clinical and Translational Science, 2026).
Where “and” joins values, the source holds several entries; their conditions need not be identical. Equal entries are not always repeated. Marks after values point to notes of the source that are not given here.

Tests used:
OATP1B1 = molecular target: T1, OATP1B1 (Homo sapiens, UniProt Q9Y6L6); experiment: OATP1B1 inhibition, rosuvastatin uptake into transporter-expressing HEK293 cells; assay type: cell-based; conditions: for IC50: IC50 (95% CI), μM OATP1B1, 2.5 μM rosuvastatin, 2 min, 30 min preincubation; for Calculated R-value OATP1B1: R = 1 + (I in,max,u/IC50), FDA cut-off ≥ 1.1
T1 construct: expressed in transfected cells; host or cells: HEK293 (recombinant baculovirus-mediated transduction)
T1 sequence (Q9Y6L6 1-691): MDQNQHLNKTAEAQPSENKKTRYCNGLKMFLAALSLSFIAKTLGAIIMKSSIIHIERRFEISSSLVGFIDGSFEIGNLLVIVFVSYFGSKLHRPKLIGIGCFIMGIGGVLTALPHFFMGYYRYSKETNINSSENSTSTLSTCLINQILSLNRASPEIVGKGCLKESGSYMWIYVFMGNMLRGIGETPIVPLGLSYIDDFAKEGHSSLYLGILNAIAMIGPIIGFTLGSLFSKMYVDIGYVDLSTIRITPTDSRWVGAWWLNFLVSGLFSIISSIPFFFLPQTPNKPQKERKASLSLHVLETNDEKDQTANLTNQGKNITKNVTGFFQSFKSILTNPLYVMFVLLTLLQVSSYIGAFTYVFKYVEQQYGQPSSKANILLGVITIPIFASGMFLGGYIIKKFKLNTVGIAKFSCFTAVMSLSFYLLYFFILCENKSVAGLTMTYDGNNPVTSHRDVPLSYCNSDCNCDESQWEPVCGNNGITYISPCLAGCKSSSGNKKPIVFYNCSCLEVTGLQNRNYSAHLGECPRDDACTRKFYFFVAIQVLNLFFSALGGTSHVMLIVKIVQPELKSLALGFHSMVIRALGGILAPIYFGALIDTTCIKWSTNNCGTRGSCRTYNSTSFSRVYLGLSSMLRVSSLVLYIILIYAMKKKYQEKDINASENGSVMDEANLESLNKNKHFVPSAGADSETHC
Protocol: (§1) The human transporters OATP1B1, OATP1B3, OATP2B1, and OAT1‐OAT4 and a negative control protein (enhanced yellow fluorescent protein, eYFP) were transiently expressed in human embryonic kidney 293 (HEK293) cells by recombinant baculovirus‐mediated transduction. Baculoviruses carrying human genes for the transporters were prepared as reported previously. HEK293 cells were cultured in DMEM containing 10% fetal bovine serum at 37°C and 5% CO2 and passaged two to three times per week. For the transport studies, 0.05 × 10^6 cells for 48‐well plates (OATPs) or 0.06 × 10^6 cells for 24‐well plates (OATs) were seeded onto cell‐culture treated well plates coated with poly‐D‐lysine. After 1 day, cells were transduced to produce recombinant proteins by changing media to DMEM containing 30 μL (48‐well plates) or 60 μL (24‐well plates) of recombinant baculovirus and 3 mM (OATs) or 5 mM (OATPs) sodium butyrate in a total media volume of 500 μL. The cells were cultured for a further 2 days before the transport assays.
For the transport studies, media were removed and cells were washed once with warm transport uptake buffer (TP‐buffer—pH 7.4 HBSS with 25 mM HEPES and 4 mM sodium bicarbonate). Each experiment included triplicate (OATP) or duplicate (OAT) samples for every test condition. The uptake was started by removing liquid from wells and applying warm TP‐buffer (200 μL for 24‐well plates or 125 μL for 48‐well plates) containing a test compound to cells. Transport assays were terminated after a pre‐specified incubation time (reported in figure legends) by removing substrate solution and washing cells three times with cold TP‐buffer (300 μL for 48‐well plates and 400 μL for 24‐well plates). For the liquid chromatography mass spectrometry (LC–MS) analysis, compounds were extracted from cells with 125 μL (48‐well plates) or 250 μL (24‐well plates) of an ultrapure‐water solution containing 75% methanol and 0.1% formic acid, shaking at 250 RPM for 30 min. […] Samples were transferred to well plates, centrifuged at 3000 g for 30 min, and transferred to a new well plate for the analysis.
(§2) In the OATP inhibition assays, inhibitors in warm TP‐buffer were directly applied to cells after media removal, followed by a 30‐min preincubation step in the presence of inhibitors. […] OAT1 and OAT3 cells were lysed with 200 μL of 1 M sodium hydroxide for 10 min, and 150 μL of these samples were transferred to a black well plate for fluorescein quantification. […]
(§3) For the inhibition data analysis, the average of measured concentrations in the control cells was subtracted from the average of measured concentrations in transporter‐expressing cells for each inhibitor concentration and then normalized to the vehicle sample that represents 100% transport activity. […]

OAT4 = molecular target: T2, OAT4 (Homo sapiens, UniProt Q9NSA0); experiment: OAT4 inhibition, methotrexate uptake into HEK293 cells; assay type: cell-based; conditions: for Calculated R-value OAT4: R = I max,u/IC50, cut-off ≥ 0.02 (MATE threshold)
T2 construct: expressed in transfected cells; host or cells: HEK293 (recombinant baculovirus-mediated transduction)
T2 sequence (Q9NSA0 1-550): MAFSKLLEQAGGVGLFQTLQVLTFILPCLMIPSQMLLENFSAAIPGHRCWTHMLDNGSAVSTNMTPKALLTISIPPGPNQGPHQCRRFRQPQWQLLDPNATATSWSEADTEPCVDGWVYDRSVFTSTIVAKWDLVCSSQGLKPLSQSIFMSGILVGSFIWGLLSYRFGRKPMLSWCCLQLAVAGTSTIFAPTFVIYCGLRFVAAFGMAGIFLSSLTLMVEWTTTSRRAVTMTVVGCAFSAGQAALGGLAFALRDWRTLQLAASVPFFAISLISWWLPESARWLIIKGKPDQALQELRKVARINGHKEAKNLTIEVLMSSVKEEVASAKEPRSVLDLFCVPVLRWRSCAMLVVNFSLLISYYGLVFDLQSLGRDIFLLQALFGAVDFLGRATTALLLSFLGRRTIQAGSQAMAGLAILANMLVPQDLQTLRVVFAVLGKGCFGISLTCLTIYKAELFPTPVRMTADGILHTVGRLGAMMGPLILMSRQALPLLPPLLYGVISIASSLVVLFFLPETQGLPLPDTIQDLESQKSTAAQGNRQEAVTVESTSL
Protocol: as §1
For the transport studies, media were removed and cells were washed once with warm transport uptake buffer (TP‐buffer—pH 7.4 HBSS with 25 mM HEPES and 4 mM sodium bicarbonate). Each experiment included triplicate (OATP) or duplicate (OAT) samples for every test condition. […]
as §2, §3

| Compound | IC50 (OATP1B1) | Calculated R-value OATP1B1 (OATP1B1) | IC50 (OAT4; IC50 (95% CI), μM OAT4, 34 nM methotrexate, 10 min, no preincubation) | Calculated R-value OAT4 (OAT4) |
| --- | --- | --- | --- | --- |
| Cc1onc(-c2c(Cl)cccc2Cl)c1C(=O)N[C@@H]1C(=O)N2[C@@H]1SC(C)(C)[C@@H]2C(=O)O [Dicloxacillin] | 3.9 µM and 3.86 µM | 2.4 ^a | 7.2 µM and 7.23 µM | 0.19 ^d |
| Cc1onc(-c2c(F)cccc2Cl)c1C(=O)N[C@@H]1C(=O)N2[C@@H]1SC(C)(C)[C@@H]2C(=O)O [Flucloxacillin] | 31 µM | 1.5 ^a | – | 0.08 ^d |
